Experimental data as given in article PMC6803965, “A New Class of β–Pyrrolidino-1,2,3-Triazole Derivatives as β-Adrenergic Receptor Inhibitors: Synthesis, Pharmacological, and Docking Studies” (Molecules, 2019).
Converted amounts (≈) assume the structure as drawn.

Assays:
Format in all cases: cell-based
[1] = system: IMR90 cells; experiment: Cytotoxicity on normal cells, MTT; conditions: IMR-90, human normal IMR90 cells, 24 h treatment, read-out: IC50 against IMR90
Method: (§1) The cytotoxic study was carried out as reported previously. Briefly, IMR90, HepG-2, and A549 cells were grown in DMEM (Dulbecco’s Modified Eagle Medium) that contained 10% fetal bovine serum and 1% antibiotics. A total of 15 × 10^3 cells/well were seeded in 96-well plates and incubated under humidified conditions. Cells were treated with varying concentrations of synthesized triazoles for 24 h. After a 24 h treatment, 20 µL aqueous one solution reagent was added to each well and incubated for 3–4 h under a humidified condition. For IMR90 cells, MTT (MTT = 3-(4,5-dimethyl-2-thiazolyl)-2,5-diphenyl-2H-tetrazolium bromide) (5 mg/mL) was added and incubated for 3–4 h in the dark. After incubation, 100 µL of a 10% SDS (Sodium Dodecyl Sulfate) solution (0.01% HCl) was added to each well. The data was taken using an ELISA (enzyme-linked immunosorbent assay) reader at the absorbance of 490 nm for HepG-2 and A549 cells and 570 nm for IMR90 cells. The cell death was calculated using the following formula: Inhibition (%) = ((A − B)/A) × 100 (A—control group, B—treated group).

[2] = system: Salmonella paratyphi-B; experiment: Antimicrobial well method, zone of inhibition
Method: (§2) Antimicrobial activity was carried out as described previously. Briefly, 20 mL of sterile Mueller Hinton agar (MHA) was poured in the petri plates and kept for solidification. After solidification, the test cultures were swabbed on the top of the media and kept for 10 min to dry. The required concentration (1 mg/well) of synthesized compounds 5a–l was added to each well and left for 30 min at RT for compound diffusion. Ketoconazole (fungi) and streptomycin (bacteria) used for positive controls. The zone of inhibition was recorded in mm and the experiment was repeated twice.

[3] = system: Malassezia pachydermatis; experiment: Antimicrobial well method, zone of inhibition
Method: as §2

[4] = system: Proteus vulgaris; experiment: Antimicrobial well method, zone of inhibition
Method: as §2

[5] = system: Staphylococcus aureus-MRSA; experiment: Antimicrobial well method, zone of inhibition
Method: as §2

[6] = system: Candida albicans; experiment: Antimicrobial well method, zone of inhibition; conditions: 1 mg/well
Method: as §2

[7] = system: Enterobacter aerogenes; experiment: Antimicrobial well method, zone of inhibition; conditions: Klebsiella aerogenes
Method: as §2

[8] = system: Staphylococcus epidermidis; experiment: Antimicrobial well method, zone of inhibition
Method: as §2

[9] = system: Micrococcus luteus; experiment: Antimicrobial well method, zone of inhibition
Method: as §2

[10] = system: Salmonella typhimurium; experiment: Antimicrobial well method, zone of inhibition; conditions: Salmonella enterica
Method: as §2

[11] = system: Klebsiella pneumoniae; experiment: Antimicrobial well method, zone of inhibition
Method: as §2

[12] = system: Shigella flexneri; experiment: Antimicrobial well method, zone of inhibition
Method: as §2

[13] = system: Staphylococcus aureus; experiment: Antimicrobial well method, zone of inhibition
Method: as §2

[14] = system: tested bacteria; experiment: Antimicrobial well method, result in words; conditions: 1 mg/mL concentration
Method: as §2

[15] = system: HepG-2 cells; experiment: Cytotoxicity, aqueous one solution reagent
Method: as §1

[16] = system: A549 cells; experiment: Cytotoxicity, aqueous one solution reagent
Method: as §1

[17] = system: Salmonella paratyphi-B; experiment: Minimum inhibitory concentration (MIC)
Method: (§3) The MIC experiment was carried out according to the standard reference methods. Briefly, the required concentrations of synthesized compounds 5a–l were dissolved in DMSO (Dimethylsulfoxide) in concentrations of 500 µg/mL, 250 µg/mL, 125 µg/mL, 62.5 µg/mL, 31.25 µg/mL, 15.6 µg/mL, and […]. An inoculum of 100 µL from each well (96-well plate) was inoculated. For the positive control, ketoconazole (fungi) and streptomycin (bacteria) was used. The MIC values for the tested bacteria were identified as the lowest inhibiting concentration of compound on the agar plate in visual growth.

[18] = system: Proteus vulgaris; experiment: Minimum inhibitory concentration (MIC); conditions: read-out: Minimum inhibitory concentration
Method: as §3

[19] = system: Staphylococcus aureus-MRSA; experiment: Minimum inhibitory concentration (MIC); conditions: Staphylococcus aureus-MRSA; read-out: Minimum inhibitory concentration
Method: as §3

[20] = system: Enterobacter aerogenes; experiment: Minimum inhibitory concentration (MIC); conditions: Klebsiella aerogenes; Enterobacter aerogenes; read-out: Minimum inhibitory concentration
Method: as §3

[21] = system: Staphylococcus epidermidis; experiment: Minimum inhibitory concentration (MIC); conditions: read-out: Minimum inhibitory concentration
Method: as §3

[22] = system: Micrococcus luteus; experiment: Minimum inhibitory concentration (MIC); conditions: read-out: Minimum inhibitory concentration
Method: as §3

[23] = system: Salmonella typhimurium; experiment: Minimum inhibitory concentration (MIC); conditions: Salmonella enterica; Salmonella typhimurium; read-out: Minimum inhibitory concentration
Method: as §3

[24] = system: Klebsiella pneumoniae; experiment: Minimum inhibitory concentration (MIC); conditions: read-out: Minimum inhibitory concentration
Method: as §3

[25] = system: Shigella flexneri; experiment: Minimum inhibitory concentration (MIC)
Method: as §3

[26] = system: Staphylococcus aureus; experiment: Minimum inhibitory concentration (MIC); conditions: read-out: Minimum inhibitory concentration
Method: as §3

C[C@@H]([C@@H](c1ccccc1)n1cc(CO)nn1)N1CCCC1 [5a, (1R,2S)-1-(1-(1-Phenyl-2-(pyrrolidin-1-yl)propyl)-1H-1,2,3-triazol-4-yl)methanol]
IC50 [1]: > 250 µM
zone of inhibition at 1 mg/well [2]: 14 mm
zone of inhibition at 1 mg/well [3]: 12 mm
zone of inhibition at 1 mg/well [4]: 17 mm
zone of inhibition at 1 mg/well [5]: 13 mm
zone of inhibition [6]: 14 mm
zone of inhibition at 1 mg/well [7]: 14 mm
zone of inhibition at 1 mg/well [8]: 14 mm
zone of inhibition at 1 mg/well [9]: 28 mm
zone of inhibition at 1 mg/well [10]: 14 mm
zone of inhibition at 1 mg/well [11]: 20 mm
zone of inhibition at 1 mg/well [12]: 22 mm
zone of inhibition at 1 mg/well [13]: 12 mm
antimicrobial activity against tested bacteria [14]: promising activity
cytotoxic activity against HepG-2 cells [15]: moderate activity
IC50 ([15]; Homo sapiens, HepG2, 24 h treatment, read-out: IC50 against HepG-2): 275 ± 1.52 µM
cytotoxic / anticancer activity against A549 cells [16]: promising anticancer activity
IC50 ([16]; Homo sapiens, 24 h treatment, read-out: IC50 against A549): 190 ± 1.35 µM
MIC [17]: 250 µg/mL (≈ 873 µM)
MIC [18]: 125 µg/mL (≈ 436 µM)
MIC [19]: 250 µg/mL (≈ 873 µM)
MIC [20]: 250 µg/mL (≈ 873 µM)
MIC [21]: 250 µg/mL (≈ 873 µM)
MIC [22]: 31.2 µg/mL (≈ 109 µM)
MIC [23]: 250 µg/mL (≈ 873 µM)
MIC [24]: 62.5 µg/mL (≈ 218 µM)
MIC [25]: 62.5 µg/mL (≈ 218 µM)
MIC [26]: 500 µg/mL (≈ 1750 µM)
